Laboratory results as given in article PMC5617480 (Oncotarget, 2017).
Where two headings read alike, the source gives them in different places.

Assays:
[1] = tested on: BEL-7404 xenograft; details: for Body weight (start) / Tumor volume (start) / Average tumor weight (mean ± SD g) / Body weight (end) / RBW (%) (end) / Tumor volume (end): BEL-7404 model; for Average tumor weight (mean ± SD g) / Body weight (end) / RBW (%) (end) / Tumor volume (end): day 18
Method: In vivo anticancer efficacy of chiral platinum(II) complex 6 was evaluated using BEL-7404 and BEL-7402 xenograft mouse models. BEL-7404 and BEL-7402 cells were injected into nude mice. The mice were randomized into the control group, complex 6-treated group, and the positive control group (n = 6/group). When the volume of tumor was about 80 mm^3, complex 6 was given at a high (8 mg/kg) and low (4 mg/kg) dosage daily for 18 days, 5-FU (20 mg/kg every two days) and Cisplatin (2 mg/kg every two days) were used as a positive control in the BEL-7404 and BEL-7402 xenograft model, respectively.
To evaluate the vivo anticancer efficacy of complex 6, BEL-7404 and BEL-7402 xenograft mouse models (BALB/c nude mice, female for BEL-7404 model, 17–20 g, 6–7 weeks old; male for BEL-7402 model, 18-21 g, 6–7 weeks old) were used. Furthermore, animal used, maximum tolerated dose (MTD) analysis, acute toxicity studies and antitumor activity toward BEL-7404 and BEL-7402 models in vivo of complex 6, was similar to Chen reported.
H21T (3.5 pmol; 5’-G [T AG ] -3’), primer TS (18 pmol; tumor tissue were cut into about 1.5 mm3 small pieces, and […]
5’-[…]-3’), KCl (63 mM), then transplanted into the right flank of nude mice. When EGTA (1 mM), MgCl (1.5 mM), Tween-20 (0.005%), the average tumors reach a volume of about 80 mm3, the […]
primer NT (7.5 pmol; 5’-[…]-3’), mice were randomized into 4 groups (n=6), received the […]
TSNT internal control (0.01 amol; 5’-[…] following treatments: (a) control, received saline solvent; […]
-3’), primer (b) complex 6 at doses of 8.0 mg/kg daily (dissolve in […]
Cxext (22.5 pmol; 5’-[…] saline, iv); (c) complex 6 at doses of 4.0 mg/kg daily; […]
[…]-3’), Taq DNA polymerase (2.5 U), and (d) in BEL-7404 model, 5-fluorouracil (5-Fu) as positive telomerase (100 ng). Complexes or/and distilled water control at 20 mg/kg per two days (dissolve in saline, iv); was added ([…]). PCR was performed in an Eppendorf in BEL-7402 model, cisplatin as positive control at 2 mg/ Master cycler equipped with a hot lid and incubated for kg per two days (dissolve in saline, iv).
30.0 min at 30 °C, followed by 92 °C 30 s, 52 °C 30 s, The tumor volumes and body weight was monitored and 72°C 30 s for 30.0 cycles. After amplification, 8.0 every 3 days, The tumor volumes were estimated by […] loading buffer (5×TBE buffer, 0.2% xylene cyanol, measuring the two dimensions of the tumors using caliper and 0.2% bromophenol blue ) were added to the reaction. and calculated by the formula 1 [1, 6, 14]:
An […] of aliquot was loaded onto a nondenaturing V = (length × width2)/2(1) acrylamide gel (19:1, 16%) in 1×TBE buffer and resolved at 200.0 V for 1.0 h. Gels were fixed and then stained with On day 18, the mice were sacrificed, and tumor AgNO3 [8–11]. tissue were dissected out and weighted, tumor growth inhibition rate calculated using formulas 2 and 3 [1, 6,
In order to verify whether complexes 4–6 can TGI (%) = (ΔVc − ΔVt)/ΔVc×100%(2) directly regulate c-myc promoter (Pu27) and the IR(%) = (Wc − Wt)/Wc×100%(3) expression of hTRET in BEL-7404 cells, consequently Where ΔVt = tumor volumefinal −tumor volumeinitial inhibiting the telomerase function, we constructed EGFP for compound treated group, ΔVc=tumor volumefinal − and c-myc gene vectors according to those illustrated tumor volumeinitial for vehicle control group; Wt and Wc in Chalfie, Chen and He previous work. The detailed mean the average tumor weight of complex-treated and procedures for the construct of gene (c-myc and EGFP vehicle controlled group respectively. genes) vectors, and the method of transfection assays REFERENCES have been reported by Chalfie, Chen and He [1, 6, 9, 12,

[2] = tested on: TRF1, mutp53, hTERT, TRF2, c-myc, and 53BP1; test: Western blot in BEL-7404 xenograft models; format: in vivo, BALB/c nude mice; details: 8 mg/kg and 4 mg/kg
Method: (E–H) In vivo tumor growth inhibition activity of complex 6 (4.0, 8.0 mg/kg/d) treated of BEL-7402 model with 4.0 and 8.0 mg/kg/d, comparing with cisplatin (2 mg/kg/2 days). (A) and (E). Changes in tumor volume between treatment groups (including complex 6 (4.0, 8.0 mg/kg/d), 5-FU (20 mg/kg/2 days) or cisplatin (2 mg/kg/2 days)) and vehicle (saline) group of BEL-7404 tumor-bearing mice and BEL-7402 tumor-bearing mice. Data of tumor growth were tracked by the mean tumor volume (mm^3) ± SD (n = 6) and calculated as percent TGI (tumor growth inhibition, %) values. (B and F) Relative body weight change by considering the body weight at the start of the treated group as 100%, the percent weight loss or gain was calculated on subsequent days of treatment. (C) and (G) Tumor weight between treatment groups and vehicle (saline) group of BEL-7404 tumor-bearing mice and BEL-7402 tumor-bearing mice. […] (I) The expression protein level of TRF1, mutp53, hTERT, TRF2, c-myc, and 53BP1 were analyzed by western blot in BEL-7404 xenograft models treated with 8 mg/kg and 4 mg/kg complex 6, and 20 mg/kg 5-FU, respectively. (J) The whole-BEL-7404 xenograft model extracts were prepared and analyzed by Western blot analysis using antibodies against TRF1, mutp53, hTERT, TRF2, c-myc, and 53BP1. […] Western blotting bands from three independent measurements were quantified with Image J. in (I). […]

cis-[PtCl2(S-(–)-FOA)] [complex 6]
discomfort / side effects in diet intake or overall body weight ([1]; BEL-7404 and BEL-7402 models, 4 and 8 mg/kg daily): did not display any discomfort or discernible side effects
Body weight (start) ([1]; 6 4.0 mg/kg daily iv): 19.5 ± 1.6 g
Tumor volume (start) ([1]; 6 4.0 mg/kg daily iv): 75.81±19.95 mm3
Average tumor weight (mean ± SD g) ([1]; 6 4.0 mg/kg daily iv): 0.67 ± 0.08 g
Body weight (end) ([1]; 6 4.0 mg/kg daily iv): 17.2 ± 1.7 g
RBW (%) (end) ([1]; 6 4.0 mg/kg daily iv): 87.9±4.2%
Tumor volume (end) ([1]; 6 4.0 mg/kg daily iv): 782.94±73.43 mm3
Body weight (start) ([1]; 6 8.0 mg/kg daily iv): 19.5 ± 1.2 g
Tumor volume (start) ([1]; 6 8.0 mg/kg daily iv): 73.70±16.66 mm3
Average tumor weight (mean ± SD g) ([1]; 6 8.0 mg/kg daily iv): 0.51 ± 0.19 g
Body weight (end) ([1]; 6 8.0 mg/kg daily iv): 17.4 ± 0.8 g
RBW (%) (end) ([1]; 6 8.0 mg/kg daily iv): 89.2±2.5%
Tumor volume (end) ([1]; 6 8.0 mg/kg daily iv): 659.96±253.88 mm3
expression of mutp53, c-myc, and hTERT [2]: down-regulated
protein expression of TRF1, TRF2, and 53BP1 [2]: significantly up-regulated
